Test [1] has as its target T1, BRD4 Bromodomain 1 (BRD4 BD1) (Homo sapiens, UniProt O60885).
T1 construct: 44-168 and BRD4 BD2
Briefly: AlphaScreen binding assay, BRD4 BD1. Particulars: His-tagged BRD4 BD1 50 nM, biotinylated H4 (1-21) K5/8/12/16 tetra-acetylated peptide 50 nM, compounds listed under IC50 range headings. In outline:
(§1)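 An AlphaScreen competition format was used with His-BRD4 BD1 or BD2 and biotin-H4 K5/8/12/16-acetyl peptide, each at matched final levels of 50 nM (BD1) or 100 nM (BD2). Incubation in HEPES/NaCl buffer with 0.1% BSA and 0.01% Triton X-100 ran ≥1 h before IC50 determination.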

For test [2], the target named is T2, BRD4 Bromodomain 2 (BRD4 BD2) (Homo sapiens, UniProt O60885).
T2 construct: 333-460 were cloned, expressed, and purified to homogeneity
Briefly: AlphaScreen binding assay, BRD4 BD2. The note with it: His-tagged BRD4 BD2 100 nM, biotinylated H4 (1-21) K5/8/12/16 tetra-acetylated peptide 100 nM, compounds listed under IC50 range headings. An outline of the steps: as §1
For orientation: Alpha assays give light when donor and acceptor beads are brought close together.

Test [3] concerns acute myelocytic leukemia (AML) cell line MV4-11. Briefly: Oncology cell growth assay (3-day proliferation, CellTiter-Glo). The format is cell-based. Particulars: Homo sapiens, MV4-11 cells, 3000 cells/well, compounds listed under IC50 range headings, read-out: MV411 IC50 (gIC50, inhibition of proliferation). An outline of the steps:
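Compounds were serially diluted 3-fold in DMSO, giving final well concentrations from 10 down to 0.0045 μM. MV4-11 cells were then seeded at 3000 cells/well in RPMI 1640 with 10% FBS and incubated 72 hours. CellTiter-Glo signal was measured and gIC50 obtained by four-parameter logistic regression.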
In general terms: ATP-based viability assays read luminescence as a measure of living cells.

The structures appear in SMILES notation. Where two headings read alike, the source gives them in different places. Bounds are passed on as bounds.

Turning to `CCN1CC(Oc2c(-c3cnn(C4CC4)c3)ccc3c2CC[C@H](C)N3C(C)=O)C1` [I-253, (S)-1-(6-(1-cyclopropyl-1H-pyrazol-4-yl)-5-(1-ethylazetidin-3-yloxy)-2-methyl-3,4-dihydroquinolin-1(2H)-yl)ethanone], the IC50 was not below 10000 nM in test [1]; not below 500 nM in test [2]; more than 1000 nM in test [3] (MV4-11, 72 h).
With `COC(=O)N1c2ccc(-c3cnn(CCO)c3)c(Oc3ncccc3C#N)c2CC[C@@H]1C` [I-568], the IC50 in test [1] is 1000 to 10000 nM; in test [2], 50 to 500 nM; in test [3] (MV4-11, 72 h), less than 500 nM.
The corresponding values for `CC(=O)N1c2ccc(-c3cnn(C(C)(C)CO)c3)c(Oc3ncc(F)cn3)c2CC[C@@H]1C` [I-552] are 100 to 1000 nM, less than 50 nM and less than 500 nM.
Taken in the same sequence, the figures for `C[C@H]1CCc2c(ccc(-c3cnn(C4CCNCC4)c3)c2Oc2ccc(C#N)cc2)N1C(=O)C1CC1` [I-167] were 100 to 1000 nM, less than 50 nM and less than 500 nM.
For `COC(=O)N1c2ccc(-c3cnn(C4CC4)c3)c(OCC(=O)N(C)C3CC3)c2CC[C@@H]1C` [I-22, (S)-methyl 5-(2-(cyclopropyl(methyl)amino)-2-oxoethoxy)-6-(1-cyclopropyl-1H-pyrazol-4-yl)-2-methyl-3,4-dihydroquinoline-1(2H)-carboxylate], the IC50 was 100 to 1000 nM in test [1]; less than 50 nM in test [2]; less than 500 nM in test [3] (MV4-11, 72 h).
For the compound `COC(=O)N1c2ccc(-c3cnn(C4CC4)c3)c(Oc3ncccc3C#N)c2CC[C@@H]1C` [I-569], the IC50 in test [1] was 1000 to 10000 nM; in test [2], 50 to 500 nM; in test [3] (MV4-11, 72 h) it was less than 500 nM.
The corresponding values for `CC(=O)N1c2ccc(-c3cnn(C4CCNCC4)c3)c(Oc3ncc(F)cn3)c2CC[C@@H]1C` [I-511] are 100 to 1000 nM, less than 50 nM and less than 500 nM.
The corresponding values for `COC(=O)N1c2ccc(-c3cnn(C4CCNCC4)c3)c(Oc3ccccc3C#N)c2CC[C@@H]1C` [I-137, methyl (S)-5-(2-cyanophenoxy)-2-methyl-6-(1-(piperidin-4-yl)-1H-pyrazol-4-yl)-3,4-dihydroquinoline-1(2H)-carboxylate] are 100 to 1000 nM, less than 50 nM and less than 500 nM.
As for `CC(=O)N1c2ccc(-c3cnn(C4CCNCC4)c3)c(Oc3ccccc3F)c2CC[C@@H]1C` [I-258, (S)-1-(5-(2-fluorophenoxy)-2-methyl-6-(1-(piperidin-4-yl)-1H-pyrazol-4-yl)-3,4-dihydroquinolin-1 (2H)-yl)ethanone], the IC50 in test [1] is 100 to 1000 nM; in test [2], less than 50 nM; in test [3] (MV4-11, 72 h), less than 500 nM.
Taken in the same sequence, the figures for `CC(=O)N1c2ccc(-c3cnn(C4CC4)c3)c(OCC(=O)N3CCCCC3)c2CC[C@@H]1C` [I-8, (S)-2-(1-acetyl-6-(1-cyclopropyl-1H-pyrazol-4-yl)-2-methyl-1,2,3,4-tetrahydroquinolin-5-yloxy)-1-(piperidin-1-yl)ethanone] were 100 to 1000 nM, 50 to 500 nM and less than 500 nM.
Regarding `COC(=O)N1c2ccc(-c3cnn(C4CCNCC4)c3)c(Oc3ncc(F)cn3)c2CC[C@@H]1C` [I-533], the IC50 is 1000 to 10000 nM in test [1]; 50 to 500 nM in test [2]; less than 500 nM in test [3] (MV4-11, 72 h).
Taken in the same sequence, the figures for `CC(=O)N1c2ccc(-c3cnn(CC(C)(C)O)c3)c(OCC3CCCC3)c2CC[C@@H]1C` [I-425] were 100 to 1000 nM, 50 to 500 nM and less than 500 nM.
Taken in the same sequence, the figures for `CC(=O)N1c2ccc(-c3cnn(C4CCNCC4)c3)c(Oc3ncccc3C(N)=O)c2CC[C@@H]1C` [I-520] were 1000 to 10000 nM, 50 to 500 nM and more than 1000 nM.
For the compound `COC(=O)N1c2ccc(-c3cnn(C4CCNCC4)c3)c(Oc3cc(N4CCOCC4)ncn3)c2CC[C@@H]1C` [I-530], the IC50 in test [1] was not below 10000 nM; in test [2] it was not below 500 nM; in test [3] (MV4-11, 72 h), more than 1000 nM.
Taken in the same sequence, the figures for `CC(=O)N1c2ccc(-c3cnn(C4CCNCC4)c3)c(Oc3ncc(C(F)(F)F)cc3F)c2CC[C@@H]1C` [I-521] were 100 to 1000 nM, less than 50 nM and less than 500 nM.
Consider `CC(=O)N1c2ccc(-c3cnn(C4CCNCC4)c3)c(OC3CCC3)c2CC[C@@H]1C` [I-412], for which the IC50 in test [1] is 100 to 1000 nM; in test [2], less than 50 nM; in test [3] (MV4-11, 72 h), less than 500 nM.
Consider `CCCOc1c(-c2cnn(CC(C)(C)O)c2)ccc2c1CC[C@H](C)N2C(=O)OC` [I-442], for which the IC50 is 1000 to 10000 nM in test [1]; less than 50 nM in test [2]; less than 500 nM in test [3] (MV4-11, 72 h).
The corresponding values for `C[C@H]1CCc2c(ccc(-c3cnn(C4CCNCC4)c3)c2Oc2ncccc2C#N)N1C(=O)C1CC1` [I-540] are 100 to 1000 nM, 50 to 500 nM and less than 500 nM.
As for `CC(=O)N1c2ccc(-c3cnn(C4CCNCC4)c3)c(OCC3CCOCC3)c2CC[C@@H]1C` [I-416], the IC50 is less than 100 nM in test [1]; less than 50 nM in test [2]; less than 500 nM in test [3] (MV4-11, 72 h).
As for `CCCOc1c(-c2cnn(CCO)c2)ccc2c1CC[C@H](C)N2C(C)=O` [I-1, (S)-1-(6-(1-(2-hydroxyethyl)-1H-pyrazol-4-yl)-2-methyl-5-propoxy-3,4-dihydroquinolin-1 (2H)-yl)ethanone], the IC50 in test [1] is 100 to 1000 nM; in test [2], 50 to 500 nM; in test [3] (72 hours), less than 500 nM.
Consider `C[C@H]1CCc2c(ccc(-c3cnn(C4CCNCC4)c3)c2Oc2ccc(Cl)cc2)N1C(=O)C1CC1` [I-166, (S)-(5-(4-chlorophenoxy)-2-methyl-6-(1-(piperidin-4-yl)-1H-pyrazol-4-yl)-3,4-dihydroquinolin-1(2H)-yl)(cyclopropyl)methanone], for which the IC50 in test [1] is 100 to 1000 nM; in test [2], less than 50 nM; in test [3] (MV4-11, 72 h), less than 500 nM.
Taken in the same sequence, the figures for `CC(=O)N1c2ccc(-c3cnn(C4CC4)c3)c(Oc3ncccc3C#N)c2CC[C@@H]1C` [I-84, (S)-2-(1-acetyl-6-(1-cyclopropyl-1H-pyrazol-4-yl)-2-methyl-1,2,3,4-tetrahydroquinolin-5-yloxy)nicotinonitrile] were 100 to 1000 nM, less than 50 nM and less than 500 nM.
In the case of `CC(=O)N1c2ccc(-c3cnn(CCO)c3)c(OCC3CCCC3)c2CC[C@@H]1C` [I-426], the IC50 was less than 100 nM in test [1]; less than 50 nM in test [2]; less than 500 nM in test [3] (MV4-11, 72 h).
Taken in the same sequence, the figures for `CC(=O)N1c2ccc(-c3cnn(C4CCN(C)CC4)c3)c(Oc3ccccc3C#N)c2CC[C@@H]1C` [I-246, (S)-2-((1-acetyl-2-methyl-6-(1-(1-methylpiperidin-4-yl)-1H-pyrazol-4-yl)-1,2,3,4-tetrahydroquinolin-5-yl)oxy)benzonitrile] were 100 to 1000 nM, less than 50 nM and less than 500 nM.
`COC(=O)N1c2ccc(-c3cnn(C4CC4)c3)c(OC(F)(F)C(N)=O)c2CC[C@@H]1C` [I-14, (S)-methyl 5-(2-amino-1,1-difluoro-2-oxoethoxy)-6-(1-cyclopropyl-1H-pyrazol-4-yl)-2-methyl-3,4-dihydroquinoline-1(2H)-carboxylate]: the IC50 in test [1] was 1000 to 10000 nM; in test [2], 50 to 500 nM; in test [3] (MV4-11, 72 h), more than 1000 nM.
Taken in the same sequence, the figures for `CC(=O)N1c2ccc(-c3cnn(C4CCNCC4)c3)c(Oc3ncccc3C#N)c2CC[C@@H]1C` [I-143, (S)-2-(1-acetyl-2-methyl-6-(1-(piperidin-4-yl)-1H-pyrazol-4-yl)-1,2,3,4-tetrahydroquinolin-5-yloxy)nicotinonitrile] were 100 to 1000 nM, 50 to 500 nM and less than 500 nM.
As to `COC(=O)N1c2ccc(-c3cnn(CCS(C)(=O)=O)c3)c(Oc3ncccc3C(N)=O)c2CC[C@@H]1C` [I-586], the IC50 in test [1] is 1000 to 10000 nM; in test [2], 50 to 500 nM; in test [3] (MV4-11, 72 h), more than 1000 nM.
Taken in the same sequence, the figures for `COC(=O)N1c2ccc(-c3cnn(CCO)c3)c(Oc3ccc(C(F)(F)F)cn3)c2CC[C@@H]1C` [I-556] were 1000 to 10000 nM, 50 to 500 nM and 500 to 1000 nM.
Taken in the same sequence, the figures for `C[C@H]1CCc2c(ccc(-c3cn(C)nn3)c2OC2CCC2)N1C(=O)C1CC1` [I-53, (S)-(5-cyclobutoxy-2-methyl-6-(1-methyl-1H-1,2,3-triazol-4-yl)-3,4-dihydroquinolin-1 (2H)-yl)(cyclopropyl)methanone] were 100 to 1000 nM, less than 50 nM and less than 500 nM.
As to `C[C@H]1CCc2c(ccc(-c3cnn(C4CCNCC4)c3)c2Oc2cccc(F)c2C#N)N1C(=O)C1CC1` [I-151, (S)-2-(1-(cyclopropanecarbonyl)-2-methyl-6-(1-(piperidin-4-yl)-1H-pyrazol-4-yl)-1,2,3,4-tetrahydroquinolin-5-yloxy)-6-fluorobenzonitrile], the IC50 in test [1] was 100 to 1000 nM; in test [2] it was less than 50 nM; in test [3] (MV4-11, 72 h), less than 500 nM.
The corresponding values for `CC(=O)N1c2ccc(-c3cnn(C4CCNCC4)c3)c(Oc3cc(N4CCOCC4)ncn3)c2CC[C@@H]1C` [I-516] are 1000 to 10000 nM, 50 to 500 nM and 500 to 1000 nM.

Values taken from patent US10611750B2, “Tetrahydroquinoline compositions as bet bromodomain inhibitors” (FORMA Therapeutics, Inc., priority 2013, dated 2020).
